Assays:
Suid alphaherpesvirus 1 [1] = assay: Antiviral effect against pseudorabies virus strain Anjeszky A2 by the difference between zone of plaque inhibition and zone of cytotoxicity; type: functional
Influenza A virus [2] = assay: Antiviral activity against influenza virus A strain H7N7 (FPV) was determined as zone of cytotoxicity; type: functional, unidentified influenza virus
Influenza A virus [3] = assay: Antiviral activity against influenza virus A strain H7N7 (FPV) was determined as zone of plaque inhibition; type: functional, unidentified influenza virus
Newcastle disease virus [4] = assay: Antiviral effect against newcastle disease virus strain Russeff (NDV) by the difference between zone of plaque inhibition and zone of cytotoxicity; type: functional, avian paramyxovirus 1
Suid alphaherpesvirus 1 [5] = assay: Antiviral activity against pseudorabies virus strain Anjeszky A2 was determined as zone of cytotoxicity; type: functional; design: unit not given here
Newcastle disease virus [6] = assay: Antiviral activity against newcastle disease virus strain Russeff (NDV) was determined as zone of plaque inhibition; type: functional, avian paramyxovirus 1
Newcastle disease virus [7] = assay: Antiviral activity against newcastle disease virus strain Russeff (NDV) was determined as zone of cytotoxicity; type: functional, avian paramyxovirus 1; design: unit not given here
Suid alphaherpesvirus 1 [8] = assay: Antiviral activity against pseudorabies virus strain Anjeszky A2 was determined as zone of plaque inhibition; type: functional; design: unit not given here
Influenza A virus [9] = assay: Antiviral effect against influenza virus A strain H7N7 (FPV) by the difference between zone of plaque inhibition and zone of cytotoxicity; type: functional, unidentified influenza virus
Newcastle disease virus [10] = assay: Antiviral effect against newcastle disease virus strain Russeff (NDV) by the difference between zone of plaque inhibition and zone of cytotoxicity; (6-10 mm); type: functional, avian paramyxovirus 1
Influenza A virus [11] = assay: Antiviral effect against influenza virus A strain H7N7 (FPV) by the difference between zone of plaque inhibition and zone of cytotoxicity; (6-10 mm); type: functional, unidentified influenza virus
Influenza A virus [12] = assay: Antiviral effect against influenza virus A strain H7N7 (FPV) by the difference between zone of plaque inhibition and zone of cytotoxicity; (11-12 mm); type: functional, unidentified influenza virus
Suid alphaherpesvirus 1 [13] = assay: Antiviral effect against pseudorabies virus strain Anjeszky A2 by the difference between zone of plaque inhibition and zone of cytotoxicity; (21-40 mm); type: functional
Newcastle disease virus [14] = assay: Antiviral effect against newcastle disease virus strain Russeff (NDV) by the difference between zone of plaque inhibition and zone of cytotoxicity; (21-40 mm); type: functional, avian paramyxovirus 1
Newcastle disease virus [15] = assay: Antiviral effect against newcastle disease virus strain Russeff (NDV) by the difference between zone of plaque inhibition and zone of cytotoxicity; (11-12 mm); type: functional, avian paramyxovirus 1
Suid alphaherpesvirus 1 [16] = assay: Antiviral effect against pseudorabies virus strain Anjeszky A2 by the difference between zone of plaque inhibition and zone of cytotoxicity; (6-10 mm); type: functional

Compound | Activity (Suid alphaherpesvirus 1 [1]) [mm] | Activity (Influenza A virus [2]) [mm] | Activity (Influenza A virus [3]) [mm] | Activity (Newcastle disease virus [4]) [mM] | Activity (Suid alphaherpesvirus 1 [5]) | Activity (Newcastle disease virus [6]) [mm] | Activity (Newcastle disease virus [7]) | Activity (Suid alphaherpesvirus 1 [8]) | Activity (Influenza A virus [9]) [mM] | Activity (Newcastle disease virus [10]) [mM] | Activity (Influenza A virus [11]) [mM] | Activity (Influenza A virus [12]) [mM] | Activity (Suid alphaherpesvirus 1 [13]) [mM] | Activity (Newcastle disease virus [14]) [mM] | Activity (Newcastle disease virus [15]) [mM] | Activity (Suid alphaherpesvirus 1 [16]) [mM]
CC(C)(C)OC(=O)N[C@@H](Cc1c[nH]c2ccccc12)C(=O)OCC1OC(n2cnc(C(N)=O)n2)C2OC(C)(C)OC12 (stereo partly drawn) | 5 | 10.7 | 15.7 | 5 | 9 | 0 | 10.7 | 0 | 5 | – | – | – | – | – | – | –
CC(C)(C)OC(=O)N1CCC[C@H]1C(=O)OCC1OC(n2cnc(C(N)=O)n2)C2OC(C)(C)OC12 (stereo partly drawn) | 5 | 14 | 22.8 | – | 10 | 16.5 | 8.7 | 0 | – | 10 | 10 | – | – | – | – | –
NC(=O)c1ncn([C@@H]2O[C@H](CO)[C@@H](O)[C@H]2O)n1 [RIBAVIRIN] | – | – | – | – | – | – | – | – | – | – | – | 12 | 40 | 40 | – | –
CC(C)(C)OC(=O)NCC(=O)OC[C@H]1O[C@@H](n2cnc(C(N)=O)n2)[C@@H]2OC(C)(C)O[C@@H]21 | – | 10.2 | 0 | – | 15 | 31.5 | 19 | 23.5 | 5 | – | – | – | – | – | 12 | 10
CC(C)C[C@H](NC(=O)OC(C)(C)C)C(=O)OCC1OC(n2cnc(C(N)=O)n2)C2OC(C)(C)OC12 (stereo partly drawn) | 5 | 8.3 | 16.8 | – | 16 | 28 | 16 | 18 | – | – | 10 | – | – | – | 12 | –
CC(C)(C)OC(=O)N[C@@H](Cc1ccccc1)C(=O)OCC1OC(n2cnc(C(N)=O)n2)C2OC(C)(C)OC12 (stereo partly drawn) | 5 | 9.2 | 19.3 | 5 | 16.5 | 0 | 16.5 | 0 | – | – | – | 12 | – | – | – | –

— ChEMBL document CHEMBL1128032, “Synthesis and antiviral activity of amino acid esters of ribavirin” (1994)
